Assay results taken from patent US20170158699A1, “ADDITION SALTS OF (S)-2-(1-(6-AMINO-5-CYANOPYRIMIDIN-4-YLAMINO)ETHYL)-4-OXO-3-PHENYL-3,4-DIHYDROPYRROLO[1,2-F][1,2,4]TRIAZINE-5-CARBONITRILE” (Almirall, S.A., priority 2014, published 2017).
≈ marks a conversion by molar mass, not a printed value. Like-named read-outs stand apart in the source and are kept apart here.

Key:
Format in all cases: physicochemical
[1] = Gravimetric Vapour Sorption (GVS) isotherm, XRPD checked afterwards; details: for Hygroscopicity / water sorption behaviour (GVS): 0-90% RH; for Hygroscopicity / water sorption behaviour (GVS) / GVS mass change: 25° C.; for Change in form or crystallinity (XRPD) after GVS measurement: XRPD before and after GVS; for GVS mass change: from 0-90% RH
Experimental: X-Ray Powder Diffraction (XRPD) patterns were collected on a Bruker D8 diffractometer using Cu Ka radiation (40 kV, 40 mA), θ-2θ goniometer, and divergence of V4 and receiving slits, a Ge monochromator and a Lynxeye detector. The instrument is performance checked using a certified Corundum standard (NIST 1976). The software used for data collection was Diffrac Plus XRD Commander v2.6.1 and the data were analysed and presented using Diffrac Plus EVA v13.0.0.2 or v15.0.0.0.
Samples were run under ambient conditions as flat plate specimens using powder as received. The sample was gently packed into a cavity cut into polished, zero-background (510) silicon wafer. The sample was rotated in its own plane during analysis. The details of the data collection were: • Angular range: 2 to 42° 2θ • Step size: 0.05° 2θ • Collection time: 0.5 s/step
Gravimetric Vapour Sorption (GVS; also known as Dynamic Vapour Sorption or DVS) isotherms were obtained using a SMS DVS Intrinsic moisture sorption analyser, controlled by DVS Intrinsic Control software v1.0.1.2. The sample temperature was maintained at 25° C. by the instrument controls. The humidity was controlled by mixing streams of dry and wet nitrogen, with a total flow rate of 200 mL/min The relative humidity was measured by a calibrated Rotronic probe (dynamic range of 1.0-100% RH), located near the sample. The weight change, (mass relaxation) of the sample as a function of % RH was constantly monitored by the microbalance (accuracy ±0.005 mg).
Typically 5-20 mg of sample were placed in a tared mesh stainless steel basket under ambient conditions. The sample was loaded and unloaded at 40% RH and 25° C. (typical room conditions). A moisture sorption isotherm was performed as outlined below (4 scans giving 2 complete cycles). The standard isotherm was performed at 25° C. at 10% RH intervals over a 0-90% RH range.

[2] = Differential scanning calorimetry (DSC) thermal stability
Experimental: The differential scanning calorimetry (DSC) thermograms were obtained using a TA Instruments Q2000 equipped with a 50 position auto-sampler. The calibration for thermal capacity was carried out using sapphire and the calibration for energy and temperature was carried out using certified indium. […] (some runs up to 400° C.). A purge of dry nitrogen at 50 ml/min was maintained over the sample.

[3] = Water-solubility test; details: room temperature (25° C.)

C[C@H](Nc1ncnc(N)c1C#N)c1nn2ccc(C#N)c2c(=O)n1-c1ccccc1.O=S(=O)(O)c1ccc2ccccc2c1 [Example 2, (S)-2-(1-(6-amino-5-cyanopyrimidin-4-ylamino)ethyl)-4-oxo-3-phenyl-3,4-dihydropyrrolo[1,2-f][1,2,4]triazine-5-carbonitrile naphthalene-2-sulfonate]
Hygroscopicity / water sorption behaviour (GVS) [1]: reversible and no hydrates were formed
Change in form or crystallinity (XRPD) after GVS measurement [1]: no change in form or crystallinity
GVS mass change [1]: approx. 3.3%
Stability of the sample up to temperature (DSC) [2]: more than 250 °C

C[C@H](Nc1ncnc(N)c1C#N)c1nn2ccc(C#N)c2c(=O)n1-c1ccccc1.Cc1ccc(S(=O)(=O)O)cc1 [Example 3, (S)-2-(1-(6-amino-5-cyanopyrimidin-4-ylamino)ethyl)-4-oxo-3-phenyl-3,4-dihydropyrrolo[1,2-f][1,2,4]triazine-5-carbonitrile para-toluenesulfonate]
Hygroscopicity / water sorption behaviour (GVS) [1]: not hygroscopic
Change in form or crystallinity (XRPD) after GVS measurement [1]: no change in form or crystallinity
GVS mass change [1]: approx. 0.3%
Stability of the sample up to temperature (DSC) [2]: more than 250 °C

C[C@H](Nc1ncnc(N)c1C#N)c1nn2ccc(C#N)c2c(=O)n1-c1ccccc1 [Example C1, (S)-2-(1-(6-amino-5-cyanopyrimidin-4-ylamino)ethyl)-4-oxo-3-phenyl-3,4-dihydropyrrolo[1,2-f][1,2,4]triazine-5-carbonitrile]
solubility [3]: 1 µg/mL (≈ 2.52 µM)

(S)-2-(1-(6-amino-5-cyanopyrimidin-4-ylamino)ethyl)-4-oxo-3-phenyl-3,4-dihydropyrrolo[1,2-f][1,2,4]triazine-5-carbonitrile methanesulfonate [Example 1]
Water Solubility @ 25° C. [3]: 60 µg/mL
Hygroscopicity / water sorption behaviour (GVS) [1]: not hygroscopic
Change in form or crystallinity (XRPD) after GVS measurement [1]: no change in form or crystallinity
GVS mass change [1]: approx. 1.2%
Stability of the sample up to temperature (DSC) ([2]; heated at 10° C./min, dry nitrogen purge): more than 300 °C
